Test results reported in PMC10229614 (Scientific Reports, 2023).
Read-outs that look alike come from different tables or passages of the source.

Experiments:
[1] = molecular target: T1, aromatase (CYP19A1) (Homo sapiens, UniProt P11511); assay: Aromatase inhibition assay (Corning Supersomes CYP19/MFC kit, fluorescent); format: biochemical; details: 37 °C, mean ± SD of at least three measurements
T1 construct: purchased Corning (Corning, NY)
T1 sequence (P11511 1-503): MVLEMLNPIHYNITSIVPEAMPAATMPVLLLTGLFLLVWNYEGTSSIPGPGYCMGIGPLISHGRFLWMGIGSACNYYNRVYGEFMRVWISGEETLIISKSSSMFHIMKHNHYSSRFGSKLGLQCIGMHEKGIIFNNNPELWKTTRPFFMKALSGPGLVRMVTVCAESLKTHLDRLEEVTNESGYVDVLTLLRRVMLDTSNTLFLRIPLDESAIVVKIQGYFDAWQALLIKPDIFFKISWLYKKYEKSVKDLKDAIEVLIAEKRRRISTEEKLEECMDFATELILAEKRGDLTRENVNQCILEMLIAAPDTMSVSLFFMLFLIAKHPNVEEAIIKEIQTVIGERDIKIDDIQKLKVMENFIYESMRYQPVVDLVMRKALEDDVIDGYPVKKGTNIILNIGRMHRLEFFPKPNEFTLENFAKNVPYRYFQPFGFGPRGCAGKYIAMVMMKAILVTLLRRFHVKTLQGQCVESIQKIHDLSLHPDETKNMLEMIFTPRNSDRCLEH
Experimental: Formation of a fluorescent metabolite was measured at Ex/Em of 409 nm/530 nm. Data represents mean ± SD of at least three independent measurements.
To evaluate the aromatase inhibitory potential of hops, licorice species, and their bioactive compounds, the Corning® Supersomes™ P450 Inhibition Kit CYP19/MFC high throughput inhibition assay was used. The protocol of the kit, which is based on the effects of the tested agents on the conversion of the fluorescent substrate, 7-methoxy-4-trifluoromethyl coumarin (MFC) to 7-hydroxy-4-trifluoromethyl coumarin (HFC) by aromatase, was followed. […] Then the enzyme/substrate mixture containing the aromatase enzyme and MFC were added to the pre-incubated mixture and were incubated at 37 °C for 30 min before stopping the enzymatic reaction with the stop solution. The fluorescent signal was evaluated at the Excitation/Emission of 409 nm/530 nm and was corrected for the potential innate fluorescence of the tested extracts and compounds.

[2] = system: ERβ; details: read-out: ERβ binding (IC50), cited from earlier work
[3] = system: ERα; details: read-out: ERα binding (IC50), cited from earlier work
[4] = system: CYP19A1 expression; assay: qPCR of CYP19A1 mRNA in high-risk postmenopausal breast tissue microstructures; format: cell-based, human; details: 24 h, vs vehicle; for Suppression of baseline CYP19A1 expression: 5 µM, six subjects' tissues
Experimental: Subsequently, RNA extraction and qPCR of CYP19A1 was performed. The expression of CYP19A1 mRNA was calculated relative to the housekeeping gene RPLP0 and normalized to DMSO control.
The unaffected contralateral breast tissues of postmenopausal women who underwent bilateral mastectomy due to incident unilateral breast cancer were obtained while fresh and diced to approximately 5 mm pieces before digesting at 37 °C with 2% collagenase I in F12-K nutrient mix (Kaighn’s) medium, overnight. After the completion of digestion, the tissue was centrifuged at 250×g for 5 min and the supernatant was discarded. The pellet was washed with phosphate buffered saline and was mixed and cultured in MammoCult media supplemented with 0.2% heparin and 0.5% hydrocortisone. After 24 h incubation at 37 °C the treatments were mixed with fresh MammoCult media and added to the microstructures.
After 24 h incubation with the treatments, the microstructure pellet of the first 6 donors’ samples were prepared separately (not pooled) and washed with HBSS. Trizol was added to each pellet and the protocol of Direct-Zol RNA prep kit was used to extract RNA. The protocol included a step of DNAse I treatment for removing DNA contamination of the RNA preparations. RNA was eluted in nuclease free water and the concentration was measured using Nano Drop 2000 spectrophotometry (Thermo Fisher). The Integrated DNA Technologies (IDT) protocol, pre-made aromatase (CYP19A1) gene primer, and the pre-made housekeeping RPLP0 gene primer was used to perform qPCR using QuantStudio 12 K Flex Real Time PCR system.

[5] = system: uterus; set-up: method as in PMID 18619951, PMID 34848279; details: cited from earlier work
[6] = system: uterus; assay: In vivo uterotrophic study in immature female Sprague-Dawley rats; set-up: species or system rat; details: 3 days
Experimental: Animals were sacrificed on day 4 and their uterine weights were measured.
We used the OECD guidelines and animal model for testing uterotrophic or estrogenic activity of compounds[49]. […] The animals were treated for 3 days every 24 h. Animal weight and food intake were evaluated daily. Animals were sacrificed by CO2 asphyxiation. Uterus was collected, trimmed of fat and connective tissue, and weighted.

[7] = system: MCF-7 cells; assay: MCF-7 cell proliferation by IncuCyte live cell imaging; format: cell-based, human
Experimental: Cell proliferation was monitored using live cell imaging by IncuCyte. Data represents the mean of at least two independent observations ± SEM.
MCF-7 cells were seeded at density of 2.5 × 10^3 cells/well in RPMI media supplemented with 10% FBS. Cells were placed in IncuCyte for live cell imaging every 6 h, and were monitored. […] Treatments were repeated every 48 h until day 6 and cells were monitored until day 12. Data was analyzed using Zoom software to quantify the images and were plotted as mean ± SD of at least two independent measurements.

[8] = ref J Agric Food Chem. 2020, 68: 10651–10663

In the case of `CC(C)=CCc1c(O)cc2c(c1O)C(=O)C[C@@H](c1ccc(O)cc1)O2` [6-PN, 6-prenylnaringenin], the IC50 [1] is reported as 7.4 ± 0.3 µM.
In the case of `CC(C)=CCc1c(O)cc(O)c2c(=O)cc(-c3ccc(O)cc3)oc12` [8-PA, 8-prenylapigenin], the IC50 [1] is listed as 0.59 ± 0.08 µM, the IC50 [2, 8] is listed as 0.03 ± 0.01 µM and the IC50 [3, 8] is listed as 0.1 ± 0.05 µM.
For `CC(C)=CCc1c(O)cc(O)c2c1O[C@H](c1ccc(O)cc1)CC2=O` [8-PN, 8-prenylnaringenin], the IC50 [1] is listed as 0.05 ± 0.004 µM, the IC50 [2, 8] is listed as […] and the “Suppression of CYP19A1 expression” value ([4]; 10 µM, 5 subjects' tissues) is listed as 40%. The Uterine growth [5] was “enhance uterine growth” and the IC50 [3, 8] was […].
In the case of `C[C@]12CC[C@@H]3c4ccc(OC(=O)c5ccccc5)cc4CC[C@H]3[C@@H]1CC[C@@H]2O` [Estradiol benzoate, 17β-estradiol benzoate, reference compound], the “Uterine weight vs vehicle” value ([6]; 1.6 µg/kg.day s.c.) is reported as “significantly enhanced uterine weight (nearly doubled)”.
In the case of `C=CC(C)(C)c1cc(/C=C/C(=O)c2ccc(O)cc2)c(OC)cc1O` [LicA, licochalcone A], the IC50 [1] is reported as 3.2 ± 0.1 µM and the “Suppression of baseline CYP19A1 expression” value [4] is reported as about 40%.
For `O=C(/C=C/c1ccc(O)cc1)c1ccc(O)cc1O` [LigC, isoliquiritigenin], the IC50 [1] is listed as 4 ± 0.3 µM, the IC50 ([2]; ref PLoS One, 2013, 8: e67947) is listed as 7.8 ± 0.1 µM and the IC50 ([3]; ref PLoS One, 2013, 8: e67947) is listed as 16 ± 1 µM.
With `O=C1C[C@@H](c2ccc(O)cc2)Oc2cc(O)ccc21` [LigF, liquiritigenin] the IC50 [1] was 0.43 ± 0.02 µM, the “Uterine growth vs vehicle” value ([6]; 50 mg/kg.day s.c.) was “did not enhance uterine growth, significantly” and the E2-induced uterine growth ([6]; 150 mg/kg.day s.c. co-administered with estradiol benzoate 1.6 µg/kg.day) was “suppressed E2-induced uterine growth, significantly”. For the same compound, the “Uterine growth vs vehicle” value ([6]; 150 mg/kg.day s.c.) was “did not enhance uterine growth, significantly”, the “Suppression of baseline CYP19A1 expression” value [4] was 25% and the “Cell proliferation after treatment halted” value ([7]; 20 µM, treatment halted after third dose (six days)) was “reached full confluency on day 10”. The “Cell proliferation after treatment halted” value ([7]; 40 µM, last dose on day 6) was “maintained a significantly reduced proliferation rate until the end of the study (day 11)”, the Cytotoxicity ([7]; MCF-7 cells exposed to LigF) was “did not detect cytotoxicity” and the Cell proliferation ([7]; repeated doses of 20 µM every 48 h) was “profound suppression of proliferation”. For the same compound, the Cell proliferation ([7]; repeated doses of 40 µM every 48 h) was “profound suppression of proliferation”, the “Cell proliferation after a single dose” value ([7]; single dose) was “clear reduction in cell proliferation for up to 48 h” and the IC50 ([3]; ref PLoS One, 2013, 8: e67947) was over 200 µM.
Compound `COc1cc(O)c(CC=C(C)C)c(O)c1C(=O)/C=C/c1ccc(O)cc1` [XH, xanthohumol] has an IC50 [1] of 4.3 ± 0.6 µM.
